From US20110064721A1, “CATHEPSIN-D NEUROPROTECTION” (THE UAB RESEARCH FOUNDATION, priority 2007, published 2011)
Entries after “also recorded” stand apart in the source; their conditions may differ.

Experiments:
[1] = system: α-syn; experiment: Western blot of α-syn after CD co-transfection; assay type: cell-based, human; details: SHSY5Y cells, co-expression with α-syn-GFP
Experimental: (§1) Cell culture and transfection: The human neuroblastoma SHSY5Y cells were transfected in triplicate by vector alone, GFP-α-syn, pCMV-CD, or co-transfected by GFP-α-syn (or A53T, MOP, Y125A mutant α-syn) and pCMV-CD (or mutant CD) by Amaxa method as described by the vendor. Transfection efficiency was ˜80% as assessed by cells with or without GFP. Seventy-two (72) hours after transfection, cells were harvested. For chloroquine (10 μM) treatment, the chemicals were added 48 hours after transfection, cells were harvested […]. Live cells were counted by trypan blue exclusion. Relative cell survival was calculated as number of live cells after transfection by pCMV-CD and/or GFP-α-syn divided by live cells after transfection by vector alone. Elevated expression of α-syn or cathepsins was confirmed by Western blot analyses using whole cell extracts.
Western blot: Wildtype and CD−/− cortex (n≧3 each genotype) were homogenized in 10 volumes of ice-cold lyses buffer (50 mM Tris-HCl pH 7.4, 175 mM NaCl, 5 mM EDTA), sonicated for 10 seconds, add TritonX-100 to 1% and incubated for 30 minutes on ice. Homogenates were then centrifuges at 15,000 g for 15 min at 4° C. to separate supernatants (fractions soluble in 1% TritonX-100) and pellets (TritonX-100-insoluble fractions) as described in Giasson et al., Neuron 34:521-33 (2002). Pellets were resuspended in lyses buffer containing 2% SDS. […]

[2] = system: dopaminergic neurons; experiment: DA neurodegeneration analysis in α-syn transgenic worms; assay type: in vivo, C. elegans; details: for protection from α-syn-induced dopaminergic neurodegeneration: 7 day old worms overexpressing human cDNA with α-syn
Experimental: For the DA neurodegeneration analysis, strain UA54 [baEx45; Pdat-1::α-syn, Pddat-1::gfp, Pdat-1 j::CD, rol-6 (su1006)], UA90 [baEx69; Pdat-1::α-syn, Pdat-1j::CD D295R, rol-6 (su1006)], UA91 [baEx70; Pdat-1::α-syn, Pdat-1::CD F2291, rol-6 (su1006)], UA53 [baEx44; Pdat-1::α-syn, rol-6 (su1006)], and UA55 [baEx46; Pdat-1::α-syn, Pdat-1::CL, rol-6 (su1006)] were generated by injecting 50 μg/ml of expression plasmid containing the human cathepsin cDNA and 50 μg/ml of rol-6 into an integrated line of UA44 [baInl1; Pdat-1::α-syn, (Cao et al., J. Neurosci. 25:3801-12 (2005))]. Three stable lines were randomly selected for neurodegeneration analysis. The 6 anterior DA neurons (4 CEP and 2 ADE neurons) of 30 animals/trial were examined for neurodegeneration when the animals were 7 days old. 90 animals from each of three CD (or CD D295R, CD F229I, CB, and CL) transgenic lines were analyzed (3 lines×3 trials of 30 animals/trial=270 total animals scored).
It was further investigated whether human CD attenuates the loss of dopaminergic neurons in a C. elegans model of α-syn-induced neurodegeneration (Cooper et al., Science 313:324-8 (2006)).

[3] = system: SHSY5Y cells; experiment: Cell death/survival after transfection, trypan blue exclusion; assay type: cell-based, human
Experimental: as §1
Overexpression of CD is neuroprotective against α-syn toxicity in mammalian cells. Excessive α-syn induces neuron death in cell cultures, and in a variety of genetic and viral delivery based animal models. To examine the potential of elevating CD level as a means to reduce α-syn-induced cell death, human neuroblastoma SHSY5Y cells were transfected with α-syn, in the absence or presence of increased CD expression (FIG. 4B). Similar to previous studies of α-syn overexpression in yeast, worms and rat neurons, it was observed that overexpression of wildtype α-syn induced robust cell death in SHSY5Y cells.
α-syn point mutation at the major CD cleavage site results in resistance to CD neuroprotection. α-syn is rich in hydrophobic amino acids (52%) and is natively unfolded. CD has a known specificity in recognizing hydrophobic residues. Although α-syn contains many putative CD cleavage sites, the main cleavage occurs at A124-Y125 (Hossain et al., J. Alzheimers Dis. 3:577-584 (2001)). It was observed that CD is also protective against PD-causing mutant α-syn induced-cell death in SHSY5Y cells (FIG. 4D). […] Furthermore, CD is ineffective at attenuating chloroquine- or staurorosporine-induced cell death (FIG. 4D).

Row | Substance | truncation/cleavage of α-syn-GFP [1] | protection from α-syn-induced dopaminergic neurodegeneration [2] | percentage of worms exhibiting the wildtype neuronal complement of all 6 anterior DA neurons ([2]; 7 day old worms overexpressing α-syn in DA neurons, n=270, α-syn alone 15-16%) [%] | staurosporine-induced cell death ([3]; 2 μM staurosporine) | chloroquine-induced cell death ([3]; 10 μM chloroquine) | A30P mutant α-syn-induced cell death ([3]; co-transfection with A30P mutant α-syn) | A53T mutant α-syn-induced cell death ([3]; co-transfection with A53T mutant α-syn) | Y125A mutant α-syn-induced cell death ([3]; co-transfection with Y125A mutant α-syn (CD cleavage site)) | protection against α-syn overexpression-induced cell death ([3]; wildtype GFP-α-syn co-transfection, 72 hours, viable cells by trypan blue)
1 | CD: principal lysosomal aspartate protease; human CD overexpressed by transfection or transgene (pCMV-CD) | produced a cleavage product of α-syn-GFP; also recorded: resulted in truncation of α-syn-GFP | significantly protected against dopaminergic neurodegeneration; also recorded: protects worms from neurodegeneration | 30 | ineffective; also recorded: does not reduce | ineffective; also recorded: does not reduce | protective; also recorded: reduced | protective; also recorded: reduced | resists neuroprotection by elevated CD; also recorded: does not reduce | provided significant protection; also recorded: protected against α-syn overexpression-induced cell death
2 | CL: related human cathepsin gene product, representative lysosomal cysteine protease, overexpressed in worms | – | did not attenuate dopaminergic neuron death; also recorded: did not have the same effect as the wildtype CD | – | – | – | – | – | – | –
3 | D295R: enzymatic mutant of CD, human cDNA overexpressed in transgenic worms | – | did not attenuate dopaminergic neuron death; also recorded: did not have the same effect as the wildtype CD | – | – | – | – | – | – | –
